Test results from PMC12005801, “Non‐Membrane Active Peptide Resensitizes MRSA to β‐Lactam Antibiotics and Inhibits S. aureus Virulence” (Advanced Science, 2025).
Read-outs that look alike come from different tables or passages of the source.

Columns and labels:
[1] = system: S. aureus 29213; assay: MIC of β-lactams with/without GN1; assay type: cell-based, Staphylococcus aureus; settings: for MIC: Staphylococcus aureus, antibiotic alone; for MIC (+1/2 MIC GN1): antibiotic + 1/2 MIC GN1
Description: MICs determination of drugs was based on the standard microdilution method as described previously.^[ [46] ^] Briefly, compounds were twofold serial dilution with MHB. Next, AMPs were added to the log‐phase bacteria suspensions (1 × 10^6 CFUs mL^−1) and then mixed with compounds in a 96‐well microliter plate (Corning, NY, USA).

[2] = system: MRSA T144; assay: MIC assay, agent alone; assay type: cell-based, Staphylococcus aureus; design: MIC^a, MIC in the presence of AMPs only: unit not given beside the values; settings: for MIC: Staphylococcus aureus
[3] = system: MRSA T144; assay: MIC assay of β-lactams in the presence of AMPs (potentiation); assay type: cell-based, Staphylococcus aureus; settings: for Potentiation (fold)^c, MIC^a / MIC^b: antibiotic with 1/4 MIC GN1
Description: A) Potentiation of different AMPs to piperacillin (PIP) against MRSA T144. 1/4 MIC AMPs were mixed with bacteria (10^6 CFU mL^−1) in MH medium and cultured with diluted PIP in 96‐well plates overnight. […] All experiments were conducted with three biological replicates and data were presented as mean ± SD.

[4] = system: MRSA T144; assay: Time-killing assay; assay type: cell-based, Staphylococcus aureus; settings: identical concentrations alone: GN1 8 µg mL^−1, PIP 16 µg mL^−1, 12 h
Description: Briefly, overnight bacteria culture was diluted 1:1000 into LB and incubated for 4 h at 37 °C with 200 rpm. […] At the time points 0, 2, 4, 6, 8, 10, and 12 h, 100 µL bacteria culture was removed and resuspended in PBS and the serial dilutions were spotted on LB agar. After incubation overnight at 37 °C, the colony counts were calculated.

[5] = system: MRSA T144; settings: addition of glutamate
Description: G) Fold changes in MIC values of various β‐lactams in the presence of glutamate against MRSA T144. […] All experiments were conducted with three biological replicates and data were presented as mean ± SD. Statistical significance was analyzed by ordinary one‐way or two‐way ANOVA (*P < 0.05, **P < 0.01, ***P < 0.001, ****P < 0.0001). ns, not significant.

[6] = MRSA T144, read-out: MIC^a, MIC in the presence of antibiotics only
[7] = MRSA, read-out: MIC^a, MIC in the presence of antibiotics only

Row | Molecule | MIC [1] | MIC (+1/2 MIC GN1) [1] | MIC [2, 6] | MIC^b, MIC in combination of antibiotics and 1/4 MIC GN1 [3] | Potentiation (fold)^c, MIC^a / MIC^b [3] | MIC [2, 7] | further results
1 | CC1(C)S[C@@H]2[C@H](NC(=O)[C@H](N)c3ccccc3)C(=O)N2[C@H]1C(=O)O [Ampicillin] | 16 µg/mL | 8 µg/mL | 512 µg/mL | 8 µg/mL | 64 fold | – | –
2 | CC1(C)S[C@@H]2[C@H](NC(=O)C(C(=O)O)c3ccccc3)C(=O)N2[C@H]1C(=O)O (stereo partly drawn) [Carbenicillin] | – | – | – | 1 µg/mL | 32 fold | 32 µg/mL | –
3 | CO/N=C(\C(=O)N[C@@H]1C(=O)N2C(C(=O)[O-])=C(C[N+]3(C)CCCC3)CS[C@H]12)c1csc(N)n1 [Cefepime] | 4 µg/mL | 2 µg/mL | – | 2 µg/mL | 4 fold | 8 µg/mL | –
4 | CO/N=C(\C(=O)N[C@@H]1C(=O)N2C(C(=O)O)=C(CSc3nc(=O)c(=O)[nH]n3C)CS[C@H]12)c1csc(N)n1 [Ceftriaxone] | – | – | – | 4 µg/mL | 8 fold | 32 µg/mL | –
5 | CO/N=C(\C(=O)N[C@@H]1C(=O)N2C(C(=O)O)=C(COC(N)=O)CS[C@H]12)c1ccco1 [Cefuroxime] | – | – | – | 1 µg/mL | 8 fold | 8 µg/mL | –
6 | C[C@@H](O)[C@H]1C(=O)N2C(C(=O)O)=C(S[C@@H]3CN[C@H](C(=O)N(C)C)C3)[C@H](C)[C@H]12 [Meropenem] | 0.0625 µg/mL | 0.03125 µg/mL | – | 0.0625 µg/mL | 16 fold | 1 µg/mL | –
7 | Cc1onc(-c2ccccc2)c1C(=O)N[C@@H]1C(=O)N2[C@@H]1SC(C)(C)[C@@H]2C(=O)O [Oxacillin] | – | – | 1 µg/mL | 0.03125 µg/mL | 32 fold | – | –
8 | CCN1CCN(C(=O)N[C@@H](C(=O)N[C@@H]2C(=O)N3[C@@H]2SC(C)(C)[C@@H]3C(=O)O)c2ccccc2)C(=O)C1=O [Piperacillin] | 2 µg/mL | 0.5 µg/mL | > 512 µg/mL | 8 µg/mL | – | – | MIC ([2]; MRSA T144, read-out: MIC of PIP alone): 512 µg/mL; Time-kill kinetics, single agent [4]: failed to prevent bacterial proliferation
9 | CC1(C)S[C@@H]2[C@H](NC(=O)[C@H](C(=O)O)c3ccsc3)C(=O)N2[C@H]1C(=O)O [Ticarcillin] | 2 µg/mL | 2 µg/mL | 16 µg/mL | 1 µg/mL | 16 fold | – | –
10 | N[C@@H](CCC(=O)O)C(=O)O [glutamate] | – | – | – | – | – | – | Reduction of MIC values of three β‐lactam antibiotics [5]: 2-16 fold
11 | Ac-WKVKWKVKWKVK-NH2 [WK-12] | – | – | – | – | – | – | MIC^a, MIC in the presence of AMPs only ([2]; MRSA T144, microdilution in MHB, 1 × 10^6 CFUs mL^−1, 37 °C, 16–18 h, no unit in table (text gives µg mL^−1)): 32; Potentiation (fold)^c, MIC^c / MIC^b ([3]; MIC of piperacillin only / MIC of piperacillin with 1/4 MIC AMP): 4 fold; MIC^b, MIC of piperacillin in the presence of 1/4 MIC AMPs ([3]; label = the AMP added at 1/4 MIC, no unit in table (text gives µg mL^−1)): 128
